This data set in a line: Case study: subjects taking capsules of the exemplary composition with exercise and low-fat diet; total cholesterol, triglycerides, LDL, HDL tracked. Format: in vivo, humans. The note with it: in two of the subjects; removed from the formulation. From the text: An initial study included 34 subjects. The subjects were advised to exercise and follow a strict low-fat diet, in addition to consuming doses of the exemplary composition. The subjects were tracked from 8 to 24 months.
It is contemplated within the scope of the invention to provide alternate formulations which eliminate nicotinic acid for use by those persons who cannot tolerate it.

The text below walks through data of US20070116713A1, “Compositions and methods for reducing or controlling blood cholesterol, lipoproteins, triglycerides and atherosclerosis” (priority 2005, published 2007).

Molecules are shown by their SMILES.

Regarding `O=C(O)c1cccnc1` [nicotinic acid], the “tolerability of nicotinic acid in the formulation” value is “not tolerated”.
